# Assay results reported in ChEMBL document CHEMBL1165871, “Synthesis of some 5-phenylisoxazole-3-carboxylic acid derivatives as potent xanthine oxidase inhibitors” (Eur J Med Chem, 2010).
# Legend:
# [1] = biological target: T1, Xanthine dehydrogenase/oxidase (Bos taurus, UniProt P80457); experiment: Inhibition of bovine xanthine oxidase by spectrophotometry
# [2] = biological target: T1, Xanthine dehydrogenase/oxidase; experiment: Inhibition of bovine xanthine oxidase at 10 ug/ml by spectrophotometry; details: cattle
# T1 sequence (P80457 whole entry): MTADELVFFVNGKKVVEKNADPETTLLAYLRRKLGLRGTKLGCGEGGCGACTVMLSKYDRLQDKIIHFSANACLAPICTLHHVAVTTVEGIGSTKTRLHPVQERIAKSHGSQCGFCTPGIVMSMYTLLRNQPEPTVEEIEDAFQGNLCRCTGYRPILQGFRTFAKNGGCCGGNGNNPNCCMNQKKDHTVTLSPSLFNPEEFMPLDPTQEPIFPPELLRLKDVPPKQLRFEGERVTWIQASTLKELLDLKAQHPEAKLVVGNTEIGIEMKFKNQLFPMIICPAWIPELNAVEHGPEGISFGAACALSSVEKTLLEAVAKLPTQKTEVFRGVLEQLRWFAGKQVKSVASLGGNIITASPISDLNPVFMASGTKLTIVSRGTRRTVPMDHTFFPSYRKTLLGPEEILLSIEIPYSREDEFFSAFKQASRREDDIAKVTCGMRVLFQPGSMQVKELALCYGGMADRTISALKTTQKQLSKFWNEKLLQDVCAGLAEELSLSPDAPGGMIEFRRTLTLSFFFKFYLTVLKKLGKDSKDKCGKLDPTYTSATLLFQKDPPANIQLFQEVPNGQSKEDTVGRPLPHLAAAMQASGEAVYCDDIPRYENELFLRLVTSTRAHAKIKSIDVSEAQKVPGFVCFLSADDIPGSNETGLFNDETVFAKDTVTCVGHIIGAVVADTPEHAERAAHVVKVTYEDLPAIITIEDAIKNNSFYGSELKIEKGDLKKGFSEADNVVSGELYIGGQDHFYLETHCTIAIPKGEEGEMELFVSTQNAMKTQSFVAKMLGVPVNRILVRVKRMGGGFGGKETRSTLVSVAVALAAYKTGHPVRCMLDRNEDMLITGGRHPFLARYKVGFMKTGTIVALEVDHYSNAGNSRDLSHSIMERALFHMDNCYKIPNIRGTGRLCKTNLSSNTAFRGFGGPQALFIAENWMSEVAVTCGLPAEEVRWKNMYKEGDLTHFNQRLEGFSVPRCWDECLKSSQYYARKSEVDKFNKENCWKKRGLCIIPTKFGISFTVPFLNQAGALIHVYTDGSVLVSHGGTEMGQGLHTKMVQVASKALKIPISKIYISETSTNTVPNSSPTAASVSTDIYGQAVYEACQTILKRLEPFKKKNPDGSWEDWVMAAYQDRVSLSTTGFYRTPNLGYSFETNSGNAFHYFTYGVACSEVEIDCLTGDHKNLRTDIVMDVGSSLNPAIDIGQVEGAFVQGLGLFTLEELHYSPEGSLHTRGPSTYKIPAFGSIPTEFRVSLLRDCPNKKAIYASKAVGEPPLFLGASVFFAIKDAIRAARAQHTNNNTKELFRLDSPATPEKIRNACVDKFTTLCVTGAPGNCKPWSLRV
SMILES,IC50 [1] [nM],inhibition at 10 µg/mL [2] [%]
CC(C)(C)c1ccc(COc2ccc(-c3cc(C(=O)O)[n-][o+]3)cc2[N+](=O)[O-])cc1,12800,
Cc1ccc(COc2ccc(-c3cc(C(=O)O)no3)cc2[N+](=O)[O-])cc1,,< 50
N#Cc1cc(-c2cc(C(=O)O)no2)ccc1OCc1ccccc1,590,
Cc1ccc(COc2ccc(-c3cc(C(=O)O)no3)cc2C#N)cc1,,< 50
CC(C)(C)c1ccc(COc2ccc(-c3cc(C(=O)O)no3)cc2C#N)cc1,1010,
O=C(O)c1cc(-c2ccc(OCc3ccc(Cl)cc3)c([N+](=O)[O-])c2)on1,2830,
CC(C)COc1ccc(-c2cc(C(=O)O)no2)cc1[N+](=O)[O-],1000,
O=C(O)c1cc(-c2ccc(OCc3ccccc3)c([N+](=O)[O-])c2)on1,970,
N#Cc1cc(-c2cc(C(=O)O)no2)ccc1OCc1ccc(Cl)cc1,630,
